From patent US11851430B1, “Pyrido[4,3-B]indole-7-carboxylic acid compounds as CK2 inhibitors” (KING FAISAL UNIVERSITY, priority 2023, dated 2023) come the findings set out here.

Structures are written as SMILES.

Test [1] concerns HL60 (leukemia) cancer cells. The test can be described thus: In vitro cytotoxic activity (MTT) assay, HL60. In kind it is cell-based. The note with it: Homo sapiens, HL-60, exposed for 96 hours, read-out: IC50, inhibition of cell proliferation, HL60 (leukemia). As to the method: (§1) Compounds 1-12 were screened for their in vitro cytotoxic activity utilizing a 3-(4,5-dimethyl-thiazol-2-yl)-2,5-diphenyltetrazolium bromide (MTT) assay against selected cancer human cell lines consisting of PC3 (prostate), HCT116 (colon), A375 (melanoma), H1299 (lung), MIAPaCa-2 (pancreas), HL60 (leukemia), MCF7 (breast), MDA-MB-231 (breast) (T. Mosmann, J. Immunol. Meth., 1983, 65, 55-63). The cells were cultured at 37° C. in RMPI1640 medium supplemented with 10% fetal bovine serum, 50 IU/mL penicillin, and 50 μg/mL streptomycin in a 5% CO2 incubator. All cells were sub-cultured 3 times/week by trypsinisation. Viable cells were seeded and allowed to adhere for 12 h before a test drug was added in 96-well plates at an initial density of 1.0×10^5 cells/mL. Tumour cell lines were separately exposed to various concentrations of the tested compounds followed by incubation at a temperature of 37° C. during 96 h inside a medium of fresh RMPI 1640. Cells were subsequently incubated at 37° C. using MTT at 0.5 mg/mL during 4 h. After removal of supernatant, formazan crystals were dissolved in isopropanol and the optical density was measured at 570 nm. CX-4945 was used as a positive control.

In test [2] the target is T1, recombinant human CK2 (RRββ-holoenzyme) (Homo sapiens, UniProt P68400).
T1 construct: purchased Millipore
The test can be described thus: CK2 kinase assay (radiometric, [γ-33P]ATP). It counts as biochemical. Particulars: final ATP 15 μM, 10 min at 30° C., eight concentrations; read-out: IC50, protein kinase CK2 activity. As to the method: CK2 Kinase Assay was conducted using the protocol as described in Pierre F. et al; J. Med. Chem. 2011, 54, 635-654. The tested compounds in aqueous solution were added at a volume of 10 μL to a reaction mixture comprising 10 μL of assay dilution buffer (ADB; 20 mM MOPS, pH 7.2, 25 mM β-glycerol phosphate, 5 mM EGTA, 1 mM sodium orthovanadate, and 1 mM dithiothreitol), 10 μL of substrate peptide (RRRDDDSDDD, dissolved in ADB at a concentration of 1 mM), 10 μL of recombinant human CK2 (RRββ-holoenzyme, 25 ng dissolved in ADB; Millipore). Reactions were initiated by the addition of 10 μL of ATP solution (90% 75 mMMgCl2, 75 μM ATP (final ATP concentration:15 μM) dissolved in ADB; 10% [γ-33P] ATP (stock 1 mCi/100 μL; 3000 Ci/mmol (Perkin-Elmer) and maintained for 10 min at 30° C. The reactions were quenched with 100 μL of 0.75% phosphoric acid and then transferred to and filtered through a phosphor cellulose filter plate (Millipore). After washing each well five times with 0.75% phosphoric acid, the plate was dried under vacuum for 5 min and, following the addition of 15 μL of scintillation fluid to each well, the residual radioactivity was measured using a Wallac luminescence counter. The IC50 values were derived from eight concentrations of test inhibitors.

The test system of test [3] is MDA-MB-231 (breast) cancer cells. The test can be described thus: In vitro cytotoxic activity (MTT) assay, MDA-MB-231. It counts as cell-based. Particulars: Homo sapiens; MDA-MB-231 cells, exposed for 96 hours; read-out: IC50, inhibition of cell proliferation, MDA-MB-231 (breast). As to the method: as §1
The test system of test [4] is MIAPaCa-2 (pancreas) cancer cells. The test is described as follows: In vitro cytotoxic activity (MTT) assay, MIAPaCa-2. It counts as cell-based. The note with it: Homo sapiens, MIA PaCa-2; MIAPaCa-2 cells, exposed for 96 hours; read-out: IC50, inhibition of cell proliferation, MIAPaCa-2 (pancreas). As to the method:
as §1

Test [5] deals with H1299 (lung) cancer cells. The test can be described thus: In vitro cytotoxic activity (MTT) assay, H1299. In kind it is cell-based. The note with it: Homo sapiens, NCI-H1299, exposed for 96 hours, read-out: IC50, inhibition of cell proliferation, H1299 (lung). As to the method:
as §1

The subject of test [6] is PC3 (prostate) cancer cells. The test can be described thus: In vitro cytotoxic activity (MTT) assay, PC3. The note with it: Homo sapiens, PC-3, exposed for 96 hours, read-out: IC50, inhibition of cell proliferation, PC3 (prostate). It counts as cell-based. The protocol:
as §1

Test [7] relates to A375 (melanoma) cancer cells. The test can be described thus: In vitro cytotoxic activity (MTT) assay, A375. In kind it is cell-based. Particulars: Homo sapiens, A-375, exposed for 96 hours, read-out: IC50, inhibition of cell proliferation, A375 (melanoma). As to the method: as §1
Test [8] relates to MCF7 (breast) cancer cells. The test is described as follows: In vitro cytotoxic activity (MTT) assay, MCF7. In kind it is cell-based. Particulars: Homo sapiens, exposed for 96 hours, read-out: IC50, inhibition of cell proliferation, MCF7 (breast). As to the method: as §1
The test system of test [9] is HCT116 (colon) cancer cells. The test can be described thus: In vitro cytotoxic activity (MTT) assay, HCT116. The note with it: Homo sapiens, HCT-116, exposed for 96 hours, read-out: IC50, inhibition of cell proliferation, HCT116 (colon). In kind it is cell-based. As to the method: as §1

T1 sequence (P68400 whole entry): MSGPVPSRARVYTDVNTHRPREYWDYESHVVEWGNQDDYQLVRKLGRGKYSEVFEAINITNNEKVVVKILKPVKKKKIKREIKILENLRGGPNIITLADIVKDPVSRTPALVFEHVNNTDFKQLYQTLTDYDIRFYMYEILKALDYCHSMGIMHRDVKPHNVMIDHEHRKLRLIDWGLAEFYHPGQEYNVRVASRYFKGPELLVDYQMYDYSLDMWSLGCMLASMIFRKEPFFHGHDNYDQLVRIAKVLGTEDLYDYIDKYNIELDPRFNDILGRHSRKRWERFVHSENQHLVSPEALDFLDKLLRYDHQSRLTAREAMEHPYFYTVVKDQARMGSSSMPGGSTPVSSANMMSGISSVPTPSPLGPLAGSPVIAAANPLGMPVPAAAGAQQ
T1 sequence (P67870 whole entry partner): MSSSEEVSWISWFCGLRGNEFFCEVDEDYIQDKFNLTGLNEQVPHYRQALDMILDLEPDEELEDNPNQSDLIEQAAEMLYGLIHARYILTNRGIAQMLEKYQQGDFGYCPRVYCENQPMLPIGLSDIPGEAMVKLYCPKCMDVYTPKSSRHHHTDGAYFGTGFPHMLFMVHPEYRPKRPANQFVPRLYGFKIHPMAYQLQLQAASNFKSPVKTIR

As for `O=C(O)c1ccc2c3cnccc3n(C(=O)c3cccc(Cl)c3)c2c1` [Compound (7), 5-(3-chlorobenzoyl)-5H-pyrido[4,3-b]indole-7-carboxylic acid], the IC50 was determined as 1700 nM in [1]; 36 nM in test [2]; 3.6 µM in test [3]; 2300 nM in test [4]; 1100 nM in test [5]; 900 nM in [6]. For the same molecule, the IC50 in [7] was found to be 4.4 µM; in test [8], 5.2 µM; in [9] it was 1600 nM.
